{"source": "patent US20110263425A1", "about": "“HERBICIDAL COMPOSITION AND METHOD OF USE THEREOF” (SYNGENTA CROP PROTECTION, INC., priority 2007, published 2011)", "design_in_all_cases": "key to Synergy (actual significantly higher than expected): *indicates synergy", "conditions_in_all_cases": "for Weed control, Actual: tank mixture", "key": {"[1]": {"test_system": "white clover (Trifolium repens)", "experiment": "Glasshouse trial, control of white clover, mesotrione and atrazine applied post-emergence", "format": "in vivo", "procedure": "[The source words this procedure for another organism and says it was used here with some conditions changed.] (§1) A glasshouse trial was carried out. Large crabgrass seeds were sown into standard glasshouse potting mix (1:1 v/v Promix:Vero sand soil) contained in 10 cm square plastic pots. Treatments were replicated three times. Mesotrione (in the form Callisto® 480SE) was applied post-emergence to large crabgrass (Digitaria sanguinalis) at either 12 g ai/ha or 24 g ai/ha with or without atrazine (in the form […]®. When used, atrazine was applied at a rate of 140 g ai/ha or 280 g ai/ha. The adjuvant system was X-77 at 0.1% v/v in deionised water. 200 litres of herbicide/adjuvant system was used per hectare. General weed control was evaluated at 7 and 14 days after treatment (DAT). It is noted that all herbicides were applied at reduced field rates because herbicide effects are magnified in a glasshouse environment. Rates were chosen to give a 50 to 70% level of control with herbicides applied alone as this allows for detection of any synergistic effect when tank mixtures are used. The results were evaluated using the Colby formula. The expected result for (A+B) is (A+B)-(A×B/100) where A and B are the 'observed' results for A and B on their own. […] A glasshouse trial was carried out as described in Example 1, but the herbicidal composition was applied to white clover (Trifolium repens) instead of large crabgrass, and higher rates of mesotrione were used."}, "large crabgrass": {"test_system": "large crabgrass", "experiment": "Glasshouse trial, control of large crabgrass, mesotrione and atrazine applied pre-emergence", "format": "in vivo, Digitaria sanguinalis", "procedure": "as §1, with “pre-emergence,” for “to white clover (Trifolium repens) instead of large crabgrass,”, “atrazine” for “mesotrione”"}, "[2]": {"test_system": "large crabgrass (Digitaria sanguinalis)", "experiment": "Glasshouse trial, control of large crabgrass, mesotrione and atrazine applied post-emergence", "format": "in vivo", "procedure": "A glasshouse trial was carried out. Large crabgrass seeds were sown into standard glasshouse potting mix (1:1 v/v Promix:Vero sand soil) contained in 10 cm square plastic pots. Treatments were replicated three times. Mesotrione (in the form Callisto® 480SE) was applied post-emergence to large crabgrass (Digitaria sanguinalis) at either 12 g ai/ha or 24 g ai/ha with or without atrazine (in the form […]®. When used, atrazine was applied at a rate of 140 g ai/ha or 280 g ai/ha. The adjuvant system was X-77 at 0.1% v/v in deionised water. 200 litres of herbicide/adjuvant system was used per hectare. General weed control was evaluated at 7 and 14 days after treatment (DAT). It is noted that all herbicides were applied at reduced field rates because herbicide effects are magnified in a glasshouse environment. Rates were chosen to give a 50 to 70% level of control with herbicides applied alone as this allows for detection of any synergistic effect when tank mixtures are used. The results were evaluated using the Colby formula. The expected result for (A+B) is (A+B)-(A×B/100) where A and B are the 'observed' results for A and B on their own."}, "[3]": {"conditions": "atrazine 140 g ai/ha plus mesotrione at 50 g ai/ha"}, "[4]": {"conditions": "atrazine 140 g ai/ha plus mesotrione at 100 g ai/ha"}, "[5]": {"conditions": "atrazine 280 g ai/ha plus mesotrione at 50 g ai/ha"}, "[6]": {"conditions": "atrazine 280 g ai/ha plus mesotrione at 100 g ai/ha"}, "[7]": {"conditions": "atrazine 280 g ai/ha plus mesotrione at 12 g ai/ha"}, "[8]": {"conditions": "atrazine 280 g ai/ha plus mesotrione at 24 g ai/ha"}, "[9]": {"conditions": "atrazine 560 g ai/ha plus mesotrione at 12 g ai/ha"}, "[10]": {"conditions": "atrazine 560 g ai/ha plus mesotrione at 24 g ai/ha"}, "[11]": {"conditions": "atrazine 140 g ai/ha plus mesotrione at 12 g ai/ha"}, "[12]": {"conditions": "atrazine 140 g ai/ha plus mesotrione at 24 g ai/ha"}}, "data": [{"smiles": "CCNc1nc(Cl)nc(NC(C)C)n1", "note": "[Atrazine, 6-chloro-N-ethyl-N-isopropyl-1,3,5-triazine-2,4-diamine]", "values": [{"measurement": "Weed control, Expected (Colby formula)", "setting": "[1]; [3]", "result": 58, "unit": "%"}, {"measurement": "Weed control, Actual", "setting": "[1]; [3]", "result": 57, "unit": "%"}, {"measurement": "Synergy (actual significantly higher than expected)", "setting": "[1]; [4]", "result": "*"}, {"measurement": "Weed control, Expected (Colby formula)", "setting": "[1]; [4]", "result": 68, "unit": "%"}, {"measurement": "Weed control, Actual", "setting": "[1]; [4]", "result": 80, "unit": "%"}, {"measurement": "Weed control, Expected (Colby formula)", "setting": "[1]; [5]", "result": 74, "unit": "%"}, {"measurement": "Weed control, Actual", "setting": "[1]; [5]", "result": 73, "unit": "%"}, {"measurement": "Synergy (actual significantly higher than expected)", "setting": "[1]; [6]", "result": "*"}, {"measurement": "Weed control, Expected (Colby formula)", "setting": "[1]; [6]", "result": 80, "unit": "%"}, {"measurement": "Weed control, Actual", "setting": "[1]; [6]", "result": 88, "unit": "%"}, {"measurement": "Synergy (actual significantly higher than expected)", "setting": "large crabgrass; [7]", "result": "*"}, {"measurement": "Weed control, Expected (Colby formula)", "setting": "large crabgrass; [7]", "result": 68, "unit": "%"}, {"measurement": "Weed control, Actual", "setting": "large crabgrass; [7]", "result": 75, "unit": "%"}, {"measurement": "Weed control, Expected (Colby formula)", "setting": "large crabgrass; [8]", "result": 97, "unit": "%"}, {"measurement": "Weed control, Actual", "setting": "large crabgrass; [8]", "result": 87, "unit": "%"}, {"measurement": "Synergy (actual significantly higher than expected)", "setting": "large crabgrass; [9]", "result": "*"}, {"measurement": "Weed control, Expected (Colby formula)", "setting": "large crabgrass; [9]", "result": 60, "unit": "%"}, {"measurement": "Weed control, Actual", "setting": "large crabgrass; [9]", "result": 90, "unit": "%"}, {"measurement": "Weed control, Expected (Colby formula)", "setting": "large crabgrass; [10]", "result": 96, "unit": "%"}, {"measurement": "Weed control, Actual", "setting": "large crabgrass; [10]", "result": 98, "unit": "%"}, {"measurement": "Synergy (actual significantly higher than expected)", "setting": "[2]; [11]", "result": "*"}, {"measurement": "Weed control, Expected (Colby formula)", "setting": "[2]; [11]", "result": 37, "unit": "%"}, {"measurement": "Weed control, Actual", "setting": "[2]; [11]", "result": 48, "unit": "%"}, {"measurement": "Synergy (actual significantly higher than expected)", "setting": "[2]; [12]", "result": "*"}, {"measurement": "Weed control, Expected (Colby formula)", "setting": "[2]; [12]", "result": 68, "unit": "%"}, {"measurement": "Weed control, Actual", "setting": "[2]; [12]", "result": 78, "unit": "%"}, {"measurement": "Synergy (actual significantly higher than expected)", "setting": "[2]; [7]", "result": "*"}, {"measurement": "Weed control, Expected (Colby formula)", "setting": "[2]; [7]", "result": 37, "unit": "%"}, {"measurement": "Weed control, Actual", "setting": "[2]; [7]", "result": 62, "unit": "%"}, {"measurement": "Synergy (actual significantly higher than expected)", "setting": "[2]; [8]", "result": "*"}, {"measurement": "Weed control, Expected (Colby formula)", "setting": "[2]; [8]", "result": 68, "unit": "%"}, {"measurement": "Weed control, Actual", "setting": "[2]; [8]", "result": 77, "unit": "%"}]}]}
